According to ChEMBL document CHEMBL3301562, “MMV Box screening against Plasmodium falciparum protein kinases and aminoacyl tRNA synthetases”:
pIC50: −log10 of the molar value.

Columns and labels:
Type in all cases: functional
Lysine--tRNA ligase = Lysine--tRNA ligase (Plasmodium falciparum (isolate 3D7), UniProt Q8IDJ8); assay: MMV: KRS recombinant Plasmodium falciparum Lysyl-tRNA-synthetase, assay with yeast tRNA, ATP, and lysine and 3 uM MMV malaria box compound, assay read out with kinase glo as % inhibition.
Lysine--tRNA ligase, sequence (Q8IDJ8 whole entry): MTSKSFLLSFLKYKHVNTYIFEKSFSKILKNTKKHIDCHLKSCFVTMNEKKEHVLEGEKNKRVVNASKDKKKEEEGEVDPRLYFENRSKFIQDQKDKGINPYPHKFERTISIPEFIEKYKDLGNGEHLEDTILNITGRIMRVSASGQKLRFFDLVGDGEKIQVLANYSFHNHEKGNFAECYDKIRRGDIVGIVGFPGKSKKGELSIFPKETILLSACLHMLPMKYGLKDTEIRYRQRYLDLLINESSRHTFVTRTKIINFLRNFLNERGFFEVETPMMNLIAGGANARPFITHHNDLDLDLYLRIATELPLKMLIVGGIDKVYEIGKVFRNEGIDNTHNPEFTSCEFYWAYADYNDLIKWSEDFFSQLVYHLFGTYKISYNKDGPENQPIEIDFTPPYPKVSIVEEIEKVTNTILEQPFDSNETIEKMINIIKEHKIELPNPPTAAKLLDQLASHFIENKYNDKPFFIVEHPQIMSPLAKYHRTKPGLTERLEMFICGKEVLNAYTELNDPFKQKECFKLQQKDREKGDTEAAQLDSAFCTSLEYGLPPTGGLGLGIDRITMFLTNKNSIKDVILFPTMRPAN

Proline--tRNA ligase = molecular target: T1, Proline--tRNA ligase (Plasmodium falciparum (isolate 3D7), UniProt Q8I5R7); assay: MMV: ProRS recombinant Plasmodium falciparum Prolyl-tRNA-synthetase, assay with yeast tRNA, ATP, and proline and 3 uM MMV malaria box compound, assay read out with kinase glo as % inhibition.
T1 sequence (Q8I5R7 whole entry): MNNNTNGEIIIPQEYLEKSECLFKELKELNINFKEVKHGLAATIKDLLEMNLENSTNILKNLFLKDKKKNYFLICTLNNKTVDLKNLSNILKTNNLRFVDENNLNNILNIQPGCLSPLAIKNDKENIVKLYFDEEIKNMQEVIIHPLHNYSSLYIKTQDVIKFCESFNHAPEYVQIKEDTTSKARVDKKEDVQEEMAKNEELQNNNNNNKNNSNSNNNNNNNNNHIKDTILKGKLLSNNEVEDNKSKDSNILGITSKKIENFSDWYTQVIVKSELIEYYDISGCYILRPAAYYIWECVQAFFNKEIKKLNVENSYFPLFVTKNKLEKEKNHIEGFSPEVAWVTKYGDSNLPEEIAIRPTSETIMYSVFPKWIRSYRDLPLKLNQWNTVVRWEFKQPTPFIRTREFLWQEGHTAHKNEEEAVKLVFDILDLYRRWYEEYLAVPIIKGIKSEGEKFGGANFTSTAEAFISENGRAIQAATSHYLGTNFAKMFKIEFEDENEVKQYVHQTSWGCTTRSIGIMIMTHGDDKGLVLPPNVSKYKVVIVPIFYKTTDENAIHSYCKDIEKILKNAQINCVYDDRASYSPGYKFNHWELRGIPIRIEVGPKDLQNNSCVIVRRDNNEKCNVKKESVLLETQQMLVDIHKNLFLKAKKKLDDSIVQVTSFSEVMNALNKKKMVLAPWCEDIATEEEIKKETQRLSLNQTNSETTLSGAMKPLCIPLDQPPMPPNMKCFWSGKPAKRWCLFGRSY

[1] = molecular target: Calcium-dependent protein kinase 1 (Plasmodium falciparum, UniProt P62344); assay: MMV: CDPK1 Protein kinase inhibition assay using recombinant PfCDPK1, syntide 2 peptide substrate, ATP and KinaseGlo to measure % inhibition at 1 uM MMV box compound.
Calcium-dependent protein kinase 1, sequence (P62344 whole entry): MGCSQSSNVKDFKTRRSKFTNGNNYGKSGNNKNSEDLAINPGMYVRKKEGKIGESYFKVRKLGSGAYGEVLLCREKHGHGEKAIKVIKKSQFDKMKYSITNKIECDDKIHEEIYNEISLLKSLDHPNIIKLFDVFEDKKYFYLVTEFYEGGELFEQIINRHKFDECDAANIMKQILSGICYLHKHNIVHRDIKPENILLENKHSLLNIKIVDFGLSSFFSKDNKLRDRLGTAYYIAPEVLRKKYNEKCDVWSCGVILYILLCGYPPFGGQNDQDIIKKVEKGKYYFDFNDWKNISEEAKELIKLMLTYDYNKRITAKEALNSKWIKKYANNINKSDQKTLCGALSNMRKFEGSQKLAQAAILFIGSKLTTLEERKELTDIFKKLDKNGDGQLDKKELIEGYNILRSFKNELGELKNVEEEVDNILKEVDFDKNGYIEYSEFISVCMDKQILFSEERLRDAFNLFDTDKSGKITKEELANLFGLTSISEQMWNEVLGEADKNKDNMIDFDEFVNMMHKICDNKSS

[2] = molecular target: T2, Calcium-dependent protein kinase 4 (Plasmodium falciparum (isolate 3D7), UniProt Q8IBS5); assay: MMV: CDPK4 Protein kinase inhibition assay using recombinant PfCDPK4, syntide2 peptide substrate, ATP and KinaseGlo to measure % inhibition at 1 uM MMV box compound.
T2 sequence (Q8IBS5 whole entry): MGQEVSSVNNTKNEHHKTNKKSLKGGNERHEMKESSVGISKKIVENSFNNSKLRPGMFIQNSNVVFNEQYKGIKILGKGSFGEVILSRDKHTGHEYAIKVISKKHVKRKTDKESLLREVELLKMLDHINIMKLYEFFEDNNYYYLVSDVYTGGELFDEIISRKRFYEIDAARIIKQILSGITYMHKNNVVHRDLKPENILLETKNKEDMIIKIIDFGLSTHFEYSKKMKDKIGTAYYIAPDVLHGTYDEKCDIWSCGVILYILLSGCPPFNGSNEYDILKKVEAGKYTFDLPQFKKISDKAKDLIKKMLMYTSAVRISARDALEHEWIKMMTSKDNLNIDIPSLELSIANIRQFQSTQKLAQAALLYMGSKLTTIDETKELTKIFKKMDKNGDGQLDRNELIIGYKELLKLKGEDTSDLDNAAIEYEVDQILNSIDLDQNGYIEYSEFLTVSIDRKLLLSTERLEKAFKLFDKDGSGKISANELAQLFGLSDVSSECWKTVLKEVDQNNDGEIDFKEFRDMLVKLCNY

[3] = molecular target: T3, Cdk-related protein kinase 6 (Plasmodium falciparum, UniProt O77239); assay: Final concentrations were 1.5 uM ATP, 5 mM MnCl2, and 15 ug/ml PK6 in a buffer of 100 mM Tris-HCl (pH 7.5). 50 ug/mL MBP was provided as the substrate; 10 uM staurosporine was used as a control inhibitor. Incubation time was 3 hours and 40 minutes.The catalytic activity of each kinase was considered proportional to ATP consumed, as determined from measurements of residual [ATP] with the luciferase-based reagent Kinase-Glo (Promega) following incubation. Luminescence (proportional to residual [ATP]) was measured on the plate readers FLx800 (BioTek Instruments, Winooski, VT, USA) and MicroBeta2.
T3 sequence (O77239 whole entry): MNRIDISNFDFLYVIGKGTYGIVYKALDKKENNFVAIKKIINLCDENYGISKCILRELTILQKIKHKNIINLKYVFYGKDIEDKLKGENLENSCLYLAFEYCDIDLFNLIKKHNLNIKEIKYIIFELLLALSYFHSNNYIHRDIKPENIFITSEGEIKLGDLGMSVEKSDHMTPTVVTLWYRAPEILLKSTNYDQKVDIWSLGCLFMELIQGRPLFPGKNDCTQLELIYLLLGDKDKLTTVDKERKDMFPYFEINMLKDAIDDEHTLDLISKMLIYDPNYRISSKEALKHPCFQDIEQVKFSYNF

[4] = molecular target: T4, Mitogen-activated protein kinase (Plasmodium falciparum, UniProt Q25917); assay: Final concentrations were 1 uM ATP, 0.5 mM DTT, 1 mM MgCl2, 0.5 mg/mL BSA, and 10 ug/ml MAP2 in a buffer of 50 mM HEPES (pH 7.0). 0.5 mg/mL histone III-S served as the substrate (13); 100 uM AMP-PNP, an ATP analog, was used as a control inhibitor. Incubation time was 4 hours.
T4 sequence (Q25917 whole entry): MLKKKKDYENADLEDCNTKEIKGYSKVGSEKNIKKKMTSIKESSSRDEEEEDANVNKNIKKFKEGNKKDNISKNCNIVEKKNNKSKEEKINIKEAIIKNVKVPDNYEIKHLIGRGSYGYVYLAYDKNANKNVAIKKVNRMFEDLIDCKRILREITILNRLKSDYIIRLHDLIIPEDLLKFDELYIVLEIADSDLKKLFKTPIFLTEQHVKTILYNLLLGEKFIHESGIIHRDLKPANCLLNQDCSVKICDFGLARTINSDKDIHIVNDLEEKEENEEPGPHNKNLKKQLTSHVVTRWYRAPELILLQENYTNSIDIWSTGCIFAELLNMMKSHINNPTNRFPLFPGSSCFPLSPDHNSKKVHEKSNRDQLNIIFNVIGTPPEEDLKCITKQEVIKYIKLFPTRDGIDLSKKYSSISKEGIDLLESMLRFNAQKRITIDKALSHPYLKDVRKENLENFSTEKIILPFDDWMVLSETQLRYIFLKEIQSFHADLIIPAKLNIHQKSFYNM

[5] = molecular target: T5, Putative uncharacterized protein pk7 (Plasmodium falciparum, UniProt O96214); assay: Final concentrations were 1 uM ATP, 2 mM DTT, 20 mM MgCl2, 2 mM MnCl2, 0.01% BSA, and 6 ug/ml PK7, in a buffer of 20 mM Tris-HCl (pH 7.5). The enzyme itself was the only substrate present (since autophosphorylation occurs); 100 uM 1NA-PP1 was used as a control inhibitor. Incubation time was 3 hours.
T5 sequence (O96214 whole entry): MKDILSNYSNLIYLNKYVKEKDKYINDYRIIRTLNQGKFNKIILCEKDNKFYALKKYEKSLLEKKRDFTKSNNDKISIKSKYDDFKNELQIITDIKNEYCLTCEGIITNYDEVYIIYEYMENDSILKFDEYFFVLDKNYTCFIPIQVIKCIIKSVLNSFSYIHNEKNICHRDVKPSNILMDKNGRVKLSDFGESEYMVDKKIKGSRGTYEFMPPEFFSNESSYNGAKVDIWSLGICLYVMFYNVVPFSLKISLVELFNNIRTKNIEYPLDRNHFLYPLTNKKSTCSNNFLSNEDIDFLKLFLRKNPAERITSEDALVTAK

| SMILES | pIC50 (Lysine--tRNA ligase) | pIC50 (Proline--tRNA ligase) | pIC50 [1] | pIC50 [2] | pIC50 [3] | pIC50 [4] | pIC50 [5] |
| --- | --- | --- | --- | --- | --- | --- | --- |
| CN1CCN(c2ccc(Nc3c4ccccc4nc4ccccc34)cc2)CC1 | < 5.60 | < 5.60 | < 6.00 | < 6.00 | < 6.00 | < 6.00 | < 6.00 |
| CCN(CC)CCNc1ncnc2c1[nH]c1ccc(Cl)cc12 | < 5.60 | < 5.60 | < 6.00 | < 6.00 | < 6.00 | < 6.00 | < 6.00 |
| CCN(CC)CCNc1ccnc2cc(Cl)ccc12 | < 5.60 | < 5.60 | < 6.00 | < 6.00 | < 6.00 | < 6.00 | < 6.00 |
| Cc1cc(Nc2ccc3ccccc3c2)n2ncnc2n1 | < 5.60 | < 5.60 | < 6.00 | < 6.00 | < 6.00 | < 6.00 | < 6.00 |
| CCC(c1ccccc1)c1nn2c(-c3cccs3)nnc2s1 (configuration not stated) | < 5.60 | < 5.60 | < 6.00 | < 6.00 | < 6.00 | < 6.00 | < 6.00 |
| CC(C)(C)c1ccc(O)c(CNC2CCCCC2)c1 | < 5.60 | < 5.60 | < 6.00 | < 6.00 | < 6.00 | < 6.00 | < 6.00 |
| CC1CN(C(=O)c2sc3ccccc3c2Cl)CC(C)O1 (configuration not stated) | < 5.60 | < 5.60 | < 6.00 | < 6.00 | < 6.00 | < 6.00 | < 6.00 |
| CN(C)c1ccc(C=Cc2nc(=O)c3ccccc3o2)cc1 | < 5.60 | < 5.60 | < 6.00 | < 6.00 | < 6.00 | < 6.00 | < 6.00 |
| CCOC(=O)c1c(NC(=O)c2ccccc2)sc2c(O)c(CN(CC)CC)ccc12 | < 5.60 | < 5.60 | < 6.00 | < 6.00 | < 6.00 | < 6.00 | < 6.00 |
| OC(CNC1CCCCC1)Cn1c2ccccc2c2ccccc21 (configuration not stated) | < 5.60 | < 5.60 | < 6.00 | < 6.00 | < 6.00 | < 6.00 | < 6.00 |
| CCCN(CCC)CC(O)COc1ccccc1C(=O)Nc1ccccc1 (configuration not stated) | < 5.60 | < 5.60 | < 6.00 | < 6.00 | < 6.00 | < 6.00 | < 6.00 |
| COc1ccc(C=C2SC(=N)N(c3ccccc3OC)C2=O)cc1 | < 5.60 | < 5.60 | < 6.00 | < 6.00 | < 6.00 | < 6.00 | < 6.00 |
| COc1ccc(NC(=O)C2c3ccccc3C(=O)N(CC(C)C)C2c2cccs2)cc1Cl (configuration not stated) | < 5.60 | < 5.60 | < 6.00 | < 6.00 | < 6.00 | < 6.00 | < 6.00 |
| CCOC(=O)c1c(C)n(-c2ccc(Cl)cc2)c2ccc(OC(=O)C=Cc3ccccc3)cc12 | < 5.60 | < 5.60 | < 6.00 | < 6.00 | < 6.00 | < 6.00 | < 6.00 |
| C=CC12CCN(CC1)C(C(O)c1ccnc3ccc(OC)cc13)C2 (configuration not stated) | < 5.60 | < 5.60 | < 6.00 | < 6.00 | < 6.00 | < 6.00 | < 6.00 |
| Cc1ccc(-c2cc3nc4c(c(O)n3n2)CCCC4)cc1 | < 5.60 | < 5.60 | < 6.00 | < 6.00 | < 6.00 | < 6.00 | < 6.00 |
| Cc1cc(C)c2c(c1)OCN(Cc1ccccc1Cl)C2 | < 5.60 | < 5.60 | < 6.00 | < 6.00 | < 6.00 | < 6.00 | < 6.00 |
| COc1ccccc1NC1=C(N2CCCCC2)C(=O)c2ccccc2C1=O | < 5.60 | < 5.60 | < 6.00 | < 6.00 | < 6.00 | < 6.00 | < 6.00 |
| Cc1cc(NC(=O)C2c3ccccc3C(=O)N(CC(C)C)C2c2cccs2)no1 (configuration not stated) | < 5.60 | < 5.60 | < 6.00 | < 6.00 | < 6.00 | < 6.00 | < 6.00 |
| Cc1ccc(N2C3c4ccccc4N(S(=O)(=O)c4ccc(C)cc4)C2c2ccccc2N3S(=O)(=O)c2ccc(C)cc2)cc1 | < 5.60 | < 5.60 | < 6.00 | < 6.00 | < 6.00 | < 6.00 | < 6.00 |
| c1ccc(Cn2c(N=Nc3c(Nc4ccccc4)ccc4ccccc34)nc3ccccc32)cc1 | < 5.60 | < 5.60 | < 6.00 | < 6.00 | < 6.00 | < 6.00 | < 6.00 |
